Assays:
PBMC = test: Growth inhibition of human PBMC after 48 hrs by XTT assay; type: cell-based
[1] = Partition coefficient, log P of the compound; type: physicochemical; conditions: octanol/water
Homo sapiens = species on record: Homo sapiens; test: Binding affinity to DNA

Question: What does the source list for `CC1=C(/C=C/C(C)=C\C=C\C(C)=C\C=N/NC(N)=S)C(C)(C)CCC1`?
Answer: Activity (PBMC): Non-toxic; logP [1]: 1.05; Kb (Homo sapiens): 8.3 10^5/M

From ChEMBL document CHEMBL1147188, “Metal complexes of retinoid derivatives with antiproliferative activity: synthesis, characterization and DNA interaction studies” (Eur J Med Chem, 2007)
